Measurements reported in the supplement of paper PMC10307832.

Tests used:
Experiment in all cases: relative viability (nuclei count vs DMSO), 5 days (fraction); higher = more cells survive
[1] = compound: COc1cc2ncn(-c3cc(OCc4ccccc4C(F)(F)F)c(C(N)=O)s3)c2cc1OC + CC(=O)Nc1cccc(-n2c(=O)n(C3CC3)c(=O)c3c(Nc4ccc(I)cc4F)n(C)c(=O)c(C)c32)c1 [Trametinib] (partner 0.02 µM)
Outline: (§1)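 Values are medians from duplicate plates. Each reflects relative viability, defined as the nuclei count of treated wells over that of vehicle wells. Lung cancer cell lines in 1536-well plates were pin-tool dosed one day after seeding with one drug alone or with a fixed anchor-drug dose plus five library-drug doses (not always all listed) in √10 steps, then fixed, stained and imaged at 4× after 5 days.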

[2] = compound: COc1cc2ncn(-c3cc(OCc4ccccc4C(F)(F)F)c(C(N)=O)s3)c2cc1OC + COc1cccc2cc(-c3nc([C@H]4CC[C@H](C(=O)O)CC4)n4ncnc(N)c34)[nH]c12 [OSI-027] (partner 0.5 µM)
Outline: as §1

[3] = compound: COc1cc2ncn(-c3cc(OCc4ccccc4C(F)(F)F)c(C(N)=O)s3)c2cc1OC + CS(=O)(=O)CCNCc1ccc(-c2ccc3ncnc(Nc4ccc(OCc5cccc(F)c5)c(Cl)c4)c3c2)o1 [Lapatinib] (partner 2 µM)
Outline: as §1

[4] = compound: COc1cc2ncn(-c3cc(OCc4ccccc4C(F)(F)F)c(C(N)=O)s3)c2cc1OC + C[C@]1(O)C[C@@H](c2nc(-c3ccc4ccc(-c5ccccc5)nc4c3)c3c(N)nccn32)C1 [Linsitinib] (partner 1 µM)
Outline: as §1

Cell Line	relative viability ([1]; first compound 0.05 µM)	relative viability ([1]; first compound 0.1581 µM)	relative viability ([1]; first compound 0.5 µM)	relative viability ([1]; first compound 1.581 µM)	relative viability ([1]; first compound 5 µM)	relative viability ([2]; first compound 0.05 µM)	relative viability ([2]; first compound 0.1581 µM)	relative viability ([2]; first compound 0.5 µM)	relative viability ([2]; first compound 1.581 µM)	relative viability ([2]; first compound 5 µM)	relative viability ([3]; first compound 0.05 µM)	relative viability ([3]; first compound 0.1581 µM)	relative viability ([3]; first compound 0.5 µM)	relative viability ([3]; first compound 1.581 µM)	relative viability ([3]; first compound 5 µM)	relative viability ([4]; first compound 0.05 µM)	relative viability ([4]; first compound 0.1581 µM)	relative viability ([4]; first compound 0.5 µM)	relative viability ([4]; first compound 1.581 µM)	relative viability ([4]; first compound 5 µM)
NCI-H838	0.518	0.523	0.412	0.192	0.0837	0.385	0.424	0.292	0.231	0.123	1.02	1.04	0.638	0.114	0.101	1.15	1.04	0.873	0.178	0.105
NCI-H1355	0.274	0.403	0.326	0.176	0.127	0.433	0.367	0.223	0.177	0.126	0.966	0.964	0.771	0.22	0.152	0.857	0.863	0.617	0.203	0.156
NCI-H1395	1.11	0.977	0.828	0.39	0.287	0.63	0.675	0.547	0.354	0.323	0.928	1.37	0.818	0.354	0.41	0.967	1	0.593	0.395	0.388
NCI-H1437	0.577	0.376	0.19	0.205	0.234	0.958	0.79	0.298	0.142	0.118	0.865	0.699	0.243	0.136	0.113	1.09	1.01	0.11	0.1	0.09
NCI-H1651	0.86	0.788	0.755	0.593	0.702	0.762	0.737	0.594	0.145	0.0994	0.916	0.96	0.365	0.103	0.108	1	1.14	0.528	0.117	0.0945
NCI-H1666	0.837	0.776	0.653	0.455	0.41	0.895	0.778	0.543	0.362	0.366	0.905	0.674	0.298	0.229	0.325	0.821	0.953	0.37	0.219	0.248
NCI-H1734	0.52	0.558	0.623	0.294	0.163	0.619	0.688	0.489	0.26	0.194	1.14	0.986	0.792	0.241	0.186	0.946	0.956	0.644	0.309	0.215
NCI-H1755	0.83	0.673	0.734	0.519	0.316	0.785	0.688	0.467	0.314	0.266	1.03	1.09	0.868	0.33	0.281	0.995	1.02	0.799	0.416	0.349
NCI-H1792	0.305	0.43	0.275	0.0525	0.0332	0.815	0.661	0.315	0.269	0.251	0.935	0.834	0.868	0.24	0.0845	0.517	0.531	0.301	0.216	0.148
NCI-H1793	0.253	0.371	0.373	0.298	0.185	0.3	0.299	0.161	0.144	0.116	0.741	0.84	0.409	0.306	0.209	0.928	0.847	0.763	0.248	0.145
NCI-H1915	0.227	0.172	0.24	0.117	0.0537	0.657	0.543	0.321	0.136	0.114	1.03	0.961	0.803	0.134	0.0963	1.09	1.05	0.795	0.169	0.106
NCI-H1944	0.413	0.42	0.337	0.189	0.123	0.589	0.396	0.254	0.14	0.112	0.972	1	0.729	0.165	0.114	1.2	1.15	0.923	0.257	0.171
NCI-H1975	0.369	0.192	0.182	0.135	0.155	0.66	0.547	0.328	0.109	0.1	0.862	0.809	0.411	0.189	0.161	1.01	0.877	0.531	0.207	0.196
NCI-H1993	0.473	0.499	0.387	0.345	0.427	0.477	0.549	0.429	0.438	0.491	0.954	0.852	0.594	0.466	0.51	0.835	0.782	0.572	0.56	0.528
NCI-H2009	0.248	0.251	0.287	0.129	0.0949	0.487	0.56	0.209	0.176	0.135	0.868	0.777	0.318	0.169	0.146	1.19	1.11	0.918	0.208	0.22
NCI-H2023	0.502	0.501	0.358	0.0995	0.0739	0.323	0.391	0.185	0.0955	0.0617	0.936	0.975	0.274	0.0863	0.095	0.593	0.769	0.49	0.123	0.0804
